Consider 15 molecules from patent publication US8614178B2, “Pharmaceutical composition for treatment of dry eye syndrome” (Novaliq GmbH, priority 2009, dated 2013).

Like-named read-outs stand apart in the source and are kept apart here.

Data set [1] relates to Sjögren syndrome patients. The following applies: oral, clinical studies; cited from earlier work.
Data set [2] is described as follows: Refractive index determination. The conditions noted are these: neat SFA.
Data set [3] can be described thus: Droplet size (weight and volume) from three droppers. Format: physicochemical. The following applies: 25° C.; for Droplet volume: calculated; for Droplet weight: mean ± SD. The method, then: The droplet size of selected SFA's in terms of weight and volume of droplets from three droppers was determined and compared to that of purified water. The devices used for dispensing the droplets were (a) a 2 mL Pasteur pipette (wall thickness 0.53 mm; external tip diameter: 1.50 mm; length: 150 mm) made of glass, (b) a 20 G (0.9 mm×50 mm) injection needle, and (c) a dropper from a commercial eye drops product (Hylo-Vision). The droplet weights were measured at 25° C. using a laboratory balance; the volumes were calculated. Each test was performed 10 times.

For data set [4], the system named is rabbit eyes. Description: Ex-vivo eye irritation test (EVEIT), abraded cornea.
Experimental: (§1) The eyes were fastened in chambers coupled micropump systems which continuously supplied the eyes with cultivation medium (Minimal Essential Medium, MEM T031-05) without fetal calf serum. The vitality of the eyes was monitored by regularly measuring the concentration of lactate and glucose in the chamber eluate. The corneal surface of the eyes was damaged by abrasion, using a dental ceramic abrasive (638XF, Meisinger). For each eye, four lesions of 3.0 to 4.5 mm^2 were prepared.
(§2) To evaluate the effect of F4H5 and F4H5 with 1 wt.-% ethanol on the cornea, an amount of approx. 0.25 to 0.50 μl of the respective test substance was dropped onto the centre of a cornea once every hour over a period of 12 hours, followed by a 12 hour resting period in which the cornea was submersed in culture medium to simulate a closed lid during a night phase. In addition, an aqueous solution of hyaluronic acid (0.1 wt.-%) was used as reference (hyaluronic acid is know to enhance the restoration of the corneal surface after damage), culture medium was used as control, and aqueous benzalkonium chloride solution (0.01 wt.-%) was used as negative control. Each test was performed over a period of 3 days. The effects were observed by optical coherence tomography (OCT), by digitally determining the dimensions of the lesions after staining with fluorescein, and finally by a histological evaluation of the corneal epithelium and endothelium at the end of each experiment.
(§3) Each of the two vehicles was tested in two separate runs.
The subject of data set [5] is rabbit eyes.
Experimental: as §1, §2, §3

As for `CC1OC2(CS1)CN1CCC2CC1` (stereo not shown) [Cevimeline], the “Effect on DED symptoms” value in data set [1] was “effective in the management of symptoms associated with keratoconjunctivitis sicca of the Sjögren type”.
As for `CCCCC(F)(F)C(F)(F)C(F)(F)C(F)(F)F` [Example F4H4], the Refractive index in data set [2] was 1.308.
`CCCCCC(F)(F)C(F)(F)C(F)(F)C(F)(F)F` [Example F4H5]: the Droplet volume was 9.6 ± 0.2 µL in data set [3] (Eye dropper (Hylo-Vision)), 4.7 ± 0.3 µL in data set [3] (Glass pipette) and 2.0 ± 0.3 µL in data set [3] (Injection needle 20 G). Besides, the Droplet weight in data set [3] (Eye dropper (Hylo-Vision)) worked out at 12.4 ± 0.2 mg; in data set [3] (Glass pipette, 10 tests) it was 6.0 ± 0.4 mg; in data set [3] (Injection needle 20 G) it was 2.6 ± 0.4 mg. This molecule showed a Refractive index in data set [2] of 1.3204. Moreover, the “Penetration into the cornea” value in the data set on rabbit eyes [4] (OCT imaging) is on record as “no indication of penetration of F4H5 into the cornea”. In addition, the “Morphological and histological evaluation of cornea” value with rabbit eyes [4] (end of test) is “had not only healed very well, but were also entirely clear at the end of the tests, with healthy and smooth surface morphology”. Further, in the data set with rabbit eyes [4] (in words), the Physiological tolerability result is reported as “better tolerated than culture medium”.
`CCCCCCC(F)(F)C(F)(F)C(F)(F)C(F)(F)F` [Example F4H6] yielded a Refractive index in data set [2] of 1.334.
`CCCCCCCC(F)(F)C(F)(F)C(F)(F)C(F)(F)F` [Example F4H7] displayed a Refractive index in data set [2] of 1.3357.
On the same count and under the same terms, next, `CCCCCCCCC(F)(F)C(F)(F)C(F)(F)C(F)(F)F` [Example F4H8]: 1.348; `CCC(F)(F)C(F)(F)C(F)(F)C(F)(F)C(F)(F)C(F)(F)F` [Example F6H2]: 1.295.
As for `CCCCC(F)(F)C(F)(F)C(F)(F)C(F)(F)C(F)(F)C(F)(F)F` [Example F6H4], the Refractive index in data set [2] is reported as 1.306.
Turning to `CCCCCCC(F)(F)C(F)(F)C(F)(F)C(F)(F)C(F)(F)C(F)(F)F` [Example F6H6], in data set [2], the Refractive index amounted to 1.3224.
`CCCCCCCC(F)(F)C(F)(F)C(F)(F)C(F)(F)C(F)(F)C(F)(F)F` [Example F6H7] gave a Refractive index in data set [2] of 1.3366.
On to `CCCCCCCCC(F)(F)C(F)(F)C(F)(F)C(F)(F)C(F)(F)C(F)(F)F` [Example F6H8], for which the Droplet volume was 10.3 ± 0.3 µL in data set [3] (Eye dropper (Hylo-Vision)), 5.0 ± 0.4 µL in data set [3] (Glass pipette) and 2.5 ± 0.1 µL in data set [3] (Injection needle 20 G). Moreover, the Droplet weight was found to be 13.7 ± 0.4 mg in data set [3] (Eye dropper (Hylo-Vision)); 6.6 ± 0.6 mg in data set [3] (Glass pipette, 10 tests); 3.4 ± 0.2 mg in data set [3] (Injection needle 20 G). In addition, the “Healing of corneal lesions” value in the data set on rabbit eyes [5] is “all lesions healed fully during the experimental time”. In data set [2], this molecule returned a Refractive index of 1.3432.
On to `CCCCCCCCCC(F)(F)C(F)(F)C(F)(F)C(F)(F)C(F)(F)C(F)(F)F` [Example F6H9], for which, in data set [2], the Refractive index is listed as 1.3494.
For the molecule `O` [Water, water, reference compound], the Droplet volume was 36.1 ± 2.2 µL in data set [3] (Eye dropper (Hylo-Vision)), 31.3 ± 1.4 µL in data set [3] (Glass pipette) and 11.1 ± 0.9 µL in data set [3] (Injection needle 20 G). Moreover, the Droplet weight was found to be 36.0 ± 2.2 mg in data set [3] (Eye dropper (Hylo-Vision)); 31.2 ± 1.4 mg in data set [3] (Glass pipette, 10 tests); 11.0 ± 0.9 mg in data set [3] (Injection needle 20 G).
As to `CC[C@@H]1C(=O)OC[C@@H]1Cc1cncn1C` [pilocarpine], in data set [1], the “Effect on DED symptoms” value is “significantly improved DED symptoms”.
Take benzalkonium chloride [BAC]: in the data set with rabbit eyes [5], the “Healing of corneal lesions” value was “rapid growth of the lesions eventually leading to a complete disintegration of the corneal epithelium”; the “Morphological and histological evaluation of cornea” value was “complete disintegration of the corneal epithelium, but also a major impairment of the complete cornea even including the endothelium”.
